Results: US9062041B2 (Bayer Intellectual Property GmbH, priority 2011, dated 2015)

How the values were obtained:
Format in all cases: cell-based
[1] = molecular target: EP4 subtype of the human PGE2 receptor (Homo sapiens, UniProt P35408); experiment: cAMP antagonism test on the human EP4 receptor (HTRF cAMP detection); details: selectivity towards hEP4, IC50 measured by cAMP antagonism test
How it was run: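 Cells expressing human EP4 preincubated 20 min at RT with compound (0.8 nM–16.5 μM), then stimulated with PGE2 (0.3 nM in 3× solution, with IBMX) 60 min at RT. After lysis, cAMP measured by HTRF competition (665/620 nm ratio); antagonism seen as rise in FRET signal.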

[2] = molecular target: EP2 subtype of the human PGE2 receptor (Homo sapiens, UniProt P43116); experiment: cAMP antagonism test on the human EP2 receptor (HTRF cAMP detection); details: hEP2 receptor, read-out: Antagonism hEP2 IC50
How it was run: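 Cells expressing human EP2 preincubated 20 min at RT with compound (0.8 nM–16.5 μM), then stimulated 60 min with PGE2 (3× solution 1.5 nM) in PBS-IBMX. After 20 min lysis, cAMP measured by competitive HTRF with cAMP-d2 and Eu cryptate anti-cAMP antibody (665/620 nm ratio).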

human PGD receptor = molecular target: T1, human PGD receptor (Homo sapiens, UniProt Q13258); experiment: cAMP antagonism test on the human prostaglandin D receptor (HTRF cAMP detection); details: selectivity towards hDP, IC50 measured by cAMP antagonism test
T1 sequence (Q13258 1-359): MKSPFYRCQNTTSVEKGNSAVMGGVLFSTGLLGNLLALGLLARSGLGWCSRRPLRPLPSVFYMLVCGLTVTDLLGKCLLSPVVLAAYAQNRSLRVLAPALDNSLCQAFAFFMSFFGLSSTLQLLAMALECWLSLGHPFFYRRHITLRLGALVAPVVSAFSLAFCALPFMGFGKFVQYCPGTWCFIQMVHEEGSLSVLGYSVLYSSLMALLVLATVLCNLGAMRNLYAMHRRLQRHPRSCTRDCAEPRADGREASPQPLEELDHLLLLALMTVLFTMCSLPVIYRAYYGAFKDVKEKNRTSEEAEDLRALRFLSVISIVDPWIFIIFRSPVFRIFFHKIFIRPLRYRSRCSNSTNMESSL
How it was run: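 Cells pre-mixed with cAMP-d2 were preincubated with compound (0.8 nM–16.5 μM) for 20 min at RT, then stimulated with 3× PGD2 solution (6 nM, in PBS-IBMX) for 30 min at RT. After lysis (20 min), HTRF read at 665/620 nm; antagonism seen as rise in FRET ratio.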

EP4 subtype of the human PGE2 receptor, sequence (P35408 whole entry): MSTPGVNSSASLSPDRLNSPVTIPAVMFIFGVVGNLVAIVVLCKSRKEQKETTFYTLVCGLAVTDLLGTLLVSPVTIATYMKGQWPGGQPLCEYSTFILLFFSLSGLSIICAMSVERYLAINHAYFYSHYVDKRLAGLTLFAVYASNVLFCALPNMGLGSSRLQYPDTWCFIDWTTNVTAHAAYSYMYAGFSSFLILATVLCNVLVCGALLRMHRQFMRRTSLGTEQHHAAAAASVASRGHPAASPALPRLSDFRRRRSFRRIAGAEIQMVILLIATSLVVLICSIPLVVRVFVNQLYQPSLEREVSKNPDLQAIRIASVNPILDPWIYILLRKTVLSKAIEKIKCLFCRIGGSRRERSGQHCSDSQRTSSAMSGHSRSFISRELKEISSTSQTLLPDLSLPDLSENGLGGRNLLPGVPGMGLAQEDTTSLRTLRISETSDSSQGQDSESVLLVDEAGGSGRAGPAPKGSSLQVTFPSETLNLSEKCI
EP2 subtype of the human PGE2 receptor, sequence (P43116 whole entry): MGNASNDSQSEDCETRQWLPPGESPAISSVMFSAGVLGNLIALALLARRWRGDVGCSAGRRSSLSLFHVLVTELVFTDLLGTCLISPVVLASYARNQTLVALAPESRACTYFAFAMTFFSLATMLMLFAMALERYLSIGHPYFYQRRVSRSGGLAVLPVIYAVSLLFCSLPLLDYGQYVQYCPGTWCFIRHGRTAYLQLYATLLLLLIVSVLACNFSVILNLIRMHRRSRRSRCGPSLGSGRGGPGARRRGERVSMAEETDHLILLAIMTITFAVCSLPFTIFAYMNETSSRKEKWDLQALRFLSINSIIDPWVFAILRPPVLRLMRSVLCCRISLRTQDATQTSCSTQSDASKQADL

SMILES	Selectivity hEP2/hEP4 [1]	IC50 [2]	Selectivity hEP2/hDP (human PGD receptor)
Cc1cc2nn(CC3CN(C(=O)c4ccc(S(F)(F)(F)(F)F)cc4)C3)cc2cc1C(=O)NCCSC(F)(F)F [Example 187, 6-methyl-2-({1-[4-(pentafluoro-λ^6-sulphanyl)benzoyl]azetidin-3-yl}methyl)-N-{2-[(trifluoromethyl)sulphanyl]ethyl}-2H-indazol-5-carboxamide]	xxx (xxx > 100)	0.0235 µM	xxx (xxx > 100)
Cc1c(C(=O)NCCSC(F)(F)F)ccc2nn(CC3CN(C(=O)c4ccc(Cl)cc4)C3)cc12 [Example 127, 2-{[1-(4-chlorobenzoyl)azetidin-3-yl]methyl}-4-methyl-N-{2-[(trifluoromethyl)sulphanyl]ethyl}-2H-indazol-5-carboxamide]	xxx (xxx > 100)	0.0556 µM	xxx (xxx > 100)
Cc1c(C(=O)NCCOCC2CC2)ccc2nn(CC3CCN(C(=O)c4ccc(-c5ccc(F)cc5)cc4)CC3)cc12 [Example 88, N-[2-(cyclopropyl-methoxy)ethyl]-2-({1-[(4′-fluorobiphenyl-4-yl)carbonyl]piperidin-4-yl}methyl)-4-methyl-2H-indazol-5-carboxamide]	xxx (xxx > 100)	0.0162 µM	xxx (xxx > 100)
Cc1cc2nn(CC3CN(C(=O)c4ccc(Cl)cc4)C3)cc2cc1C(=O)NCC1CCCCO1 (racemic) [Example 191, (+/−)-2-{[1-(4-chlorobenzoyl)azetidin-3-yl]methyl}-6-methyl-N-(3,4,5,6-tetrahydro-2H-pyran-2-ylmethyl)-2H-indazol-5-carboxamide]	xxx (xxx > 100)	0.0471 µM	xxx (xxx > 100)
Cc1cc2nn(CC3CN(C(=O)c4ccc(Cl)cc4)C3)cc2cc1C(=O)NCC(F)(F)F [Example 190, 2-{[1-(4-chlorobenzoyl)azetidin-3-yl]methyl}-6-methyl-N-(2,2,2-trifluoroethyl)-2H-indazol-5-carboxamide]	xx (xx: 10-100)	0.272 µM	xx (xx: 10-100)
Cc1ccc(C(=O)N2CC(Cn3cc4c(C)c(C(=O)NCCOCC5CC5)ccc4n3)C2)cc1 [Example 151, N-[2-(cyclopropylmethoxy)ethyl]-4-methyl-2-{[1-(4-methylbenzoyl)azetidin-3-yl]methyl}-2H-indazol-5-carboxamide]	xxx (xxx > 100)	0.0485 µM	xxx (xxx > 100)
COCCNC(=O)c1ccc2nn(CC3CCN(C(=O)c4ccc(C)cc4)CC3)cc2c1C [Example 12, N-(2-methoxyethyl)-4-methyl-2-{[1-(4-methylbenzoyl)-piperidin-4-yl]-methyl)-2H-indazol-5-carboxamide]	xxx (xxx > 100)	0.0203 µM	xxx (xxx > 100)
Cc1c(C(=O)NCC(F)(F)F)ccc2nn(CC3CN(C(=O)c4ccc(Oc5ccc(C(F)(F)F)cc5)cc4)C3)cc12 [Example 164, 4-methyl-N-(2,2,2-trifluoroethyl)-2-[(1-{4-[4-(trifluoromethyl)phenoxy]benzoyl}azetidin-3-yl)methyl]-2H-indazol-5-carboxamide]	xxx (xxx > 100)	0.0109 µM	xxx (xxx > 100)
Cc1c(C(=O)NCC(F)(F)F)ccc2nn(CC3CCN(C(=O)c4ccc(Cl)cc4)CC3)cc12 [Example 72, 2-{[1-(4-chlorobenzoyl)piperidin-4-yl]methyl}-4-methyl-N-(2,2,2-trifluoroethyl)-2H-indazol-5-carboxamide]	xxx (xxx > 100)	0.12 µM	xxx (xxx > 100)
COCCNC(=O)c1ccc2nn(CC3CN(C(=O)c4ccc5ccc(OC)cc5c4)C3)cc2c1C [Example 175, N-(2-methoxyethyl)-2-{[1-(7-methoxy-2-naphthoyl)azetidin-3-yl]methyl}-4-methyl-2H-indazol-5-carboxamide]	xxx (xxx > 100)	0.00805 µM	xxx (xxx > 100)

The remaining lines, values ahead:

Selectivity hEP2/hEP4 [1]	IC50 [2]	Selectivity hEP2/hDP (human PGD receptor)	SMILES
xx (xx: 10-100)	0.235 µM	xx (xx: 10-100)	Cc1c(C(=O)NCCSC(F)(F)F)ccc2nn(C[C@@H]3CCN(C(=O)c4ccc(OC(F)(F)F)cc4)C3)cc12 [Example 221, 4-methyl-2-({(R)-1-[4-(trifluoromethoxy)benzoyl]pyrrolidin-3-yl}methyl)-N-{2-[(trifluoromethyl)sulphanyl]ethyl}-2H-indazol-5-carboxamide]
xxx (xxx > 100)	0.00841 µM	xxx (xxx > 100)	COCCNC(=O)c1ccc2nn(CC3CCN(C(=O)c4ccc(Oc5cccc(C(F)(F)F)n5)cc4)CC3)cc2c1C [Example 350, N-(2-methoxyethyl)-4-methyl-2-{[1-(4-{[6-(trifluoromethyl)pyridin-2-yl]oxy}-benzoyl)piperidin-4-yl]methyl}-2H-indazol-5-carboxamide]
xxx (xxx > 100)	0.0477 µM	xxx (xxx > 100)	COCCNC(=O)c1ccc2nn(CC3CCN(C(=O)c4ccc(-c5ccc(F)cc5)cc4)CC3)cc2c1OCC(F)(F)F [Example 234, 2-({1-[(4′-fluorobiphenyl-4-yl)carbonyl]piperidin-4-yl}methyl)-N-(2-methoxy-ethyl)-4-(2,2,2-trifluoroethoxy)-2H-indazol-5-carboxamide]
xxx (xxx > 100)	0.00395 µM	xxx (xxx > 100)	COCCNC(=O)c1ccc2nn(CC3CCN(C(=O)c4ccc(-c5ccc(F)cc5Cl)cc4)CC3)cc2c1C [Example 384, 2-({1-[(2′-chloro-4′-fluorobiphenyl-4-yl)carbonyl]piperidin-4-yl}methyl)-N-(2-methoxyethyl)-4-methyl-2H-indazol-5-carboxamide]
xxx (xxx > 100)	0.0147 µM	xxx (xxx > 100)	Cc1c(C(=O)NCC2CCCCO2)ccc2nn(CC3CCN(C(=O)c4ccc(Oc5ccc(C(F)(F)F)cc5)cc4)CC3)cc12 (racemic) [Example 248, (+/−)-4-methyl-N-(3,4,5,6-tetrahydro-2H-pyran-2-ylmethyl)-2-[(1-{4-[4-(trifluoromethyl)phenoxy]benzoyl}piperidin-4-yl)methyl]-2H-indazol-5-carboxamide]
xxx (xxx > 100)	0.0189 µM	xxx (xxx > 100)	COCCNC(=O)c1ccc2nn(CC3CCN(C(=O)c4ccc(Oc5ccccc5F)cc4)CC3)cc2c1C [Example 366, 2-({1-[4-(2-fluorophenoxy)benzoyl]piperidin-4-yl}methyl)-N-(2-methoxyethyl)-4-methyl-2H-indazol-5-carboxamide]
xxx (xxx > 100)	0.0552 µM	xxx (xxx > 100)	COCCNC(=O)c1ccc2nn(CC3CN(C(=O)c4ccc(OC(F)(F)F)cc4)C3)cc2c1OC [Example 254, 4-methoxy-N-(2-methoxyethyl)-2-({1-[4-(trifluoromethoxy)benzoyl]azetidin-3-yl}methyl)-2H-indazol-5-carboxamide]
